ChEMBL document CHEMBL5625269, “Design, synthesis, and biological evaluation of novel benzo[6,7]indolo[3,4-c]isoquinolines as anticancer agents with topoisomerase I inhibition” (2024)
Activity calls are given as the source filed them. The calls are words filed in the database; no cut-off is given here.

Assays:
MCF7 = assay: Growth inhibition of human MCF7 cells assessed as reduction in cell viability; format: functional
U-251 = assay: Growth inhibition of human U-251 cells assessed as reduction in cell viability; format: functional
HCT-116 = assay: Growth inhibition of human HCT-116 cells assessed as reduction in cell viability; format: functional
A549 = assay: Growth inhibition of human A549 cells assessed as reduction in cell viability; format: functional
LOX IMVI = assay: Growth inhibition of human LOX IMVI cells assessed as reduction in cell viability; format: functional
SK-OV-3 = assay: Growth inhibition of human SK-OV-3 cells assessed as reduction in cell viability; format: functional
ACHN = assay: Growth inhibition of human ACHN cells assessed as reduction in cell viability; format: functional
MKN-28 = assay: Growth inhibition of human MKN-28 cells assessed as reduction in cell viability; format: functional
DU-145 = assay: Growth inhibition of human DU-145 cells assessed as reduction in cell viability; format: functional
[1] = biological target: T1, DNA topoisomerase 1 (Homo sapiens) (UniProt P11387); assay: Inhibition of human DNA topoisomerase 1 assessed as reduction in pBR322 DNA relaxation at 20 to 100 uM by agarose gel electrophoresis method; conditions: dose 20-100 µM
T1 sequence (whole entry): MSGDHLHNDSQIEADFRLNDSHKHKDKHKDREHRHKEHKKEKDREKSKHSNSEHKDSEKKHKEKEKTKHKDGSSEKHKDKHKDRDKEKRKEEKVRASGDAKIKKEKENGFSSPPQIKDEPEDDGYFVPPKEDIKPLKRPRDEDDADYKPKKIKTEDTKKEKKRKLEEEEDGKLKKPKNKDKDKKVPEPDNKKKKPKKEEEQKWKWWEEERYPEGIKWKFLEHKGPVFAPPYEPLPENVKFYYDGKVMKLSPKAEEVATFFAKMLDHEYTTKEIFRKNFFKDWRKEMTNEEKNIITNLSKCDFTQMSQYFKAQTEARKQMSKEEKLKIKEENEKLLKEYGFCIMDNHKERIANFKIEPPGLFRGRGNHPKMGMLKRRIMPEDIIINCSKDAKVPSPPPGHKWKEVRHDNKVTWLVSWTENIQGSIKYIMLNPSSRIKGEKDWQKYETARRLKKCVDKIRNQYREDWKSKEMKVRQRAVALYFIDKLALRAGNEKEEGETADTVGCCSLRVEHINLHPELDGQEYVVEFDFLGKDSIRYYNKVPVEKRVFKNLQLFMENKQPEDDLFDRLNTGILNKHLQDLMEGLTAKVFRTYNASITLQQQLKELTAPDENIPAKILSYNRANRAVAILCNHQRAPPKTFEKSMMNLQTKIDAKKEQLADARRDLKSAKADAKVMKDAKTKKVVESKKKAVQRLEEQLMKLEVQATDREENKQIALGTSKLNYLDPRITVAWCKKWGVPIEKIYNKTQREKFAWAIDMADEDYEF

[2] = biological target: T1, DNA topoisomerase 1 (Homo sapiens); assay: Inhibition of human DNA topoisomerase 1 assessed as reduction in pBR322 DNA relaxation at 20 to 100 uM in presence of ethidium bromide by agarose gel electrophoresis method; conditions: dose 20-100 µM

Structure (SMILES)	GI50 (MCF7)	GI50 (U-251)	GI50 (HCT-116)	GI50 (A549)	GI50 (SK-OV-3)	GI50 (ACHN)	GI50 (MKN-28)	GI50 (DU-145)	inhibition [1]	inhibition [2]	GI50 (LOX IMVI)
COc1cc2c(cnc3c4ccc5cc(O)ccc5c4n(CCCN4CCC(N5CCCCC5)CC4)c23)cc1O	263 nM	708 nM	309 nM	1550 nM	1820 nM	1100 nM	562 nM	759 nM	Active		363 nM
COc1cc2c(cnc3c4ccc5cc(O)ccc5c4n(CCCCl)c23)cc1O	105 nM	26 nM	115 nM	447 nM	537 nM	32 nM	316 nM	32 nM			25 nM
COc1cc2c(cnc3c4ccc5cc(O)ccc5c4n(C)c23)cc1O	437 nM	123 nM	200 nM	631 nM	759 nM	257 nM	437 nM	282 nM			178 nM

Stronger by GI50 (MCF7), values ahead:

GI50 (MCF7)	GI50 (U-251)	GI50 (HCT-116)	GI50 (A549)	GI50 (SK-OV-3)	GI50 (ACHN)	GI50 (MKN-28)	GI50 (DU-145)	inhibition [1]	inhibition [2]	Structure (SMILES)	GI50 (LOX IMVI)
13 nM	< 10 nM	65 nM	380 nM	380 nM	20 nM	912 nM	< 10 nM	Active	Active	COc1cc2c(cnc3c4ccc5cc(O)ccc5c4n(CCN(C)C)c23)cc1O	< 10 nM
< 10 nM	< 10 nM	< 10 nM	49 nM	18 nM	< 10 nM	19 nM	< 10 nM	Active	Active	COc1cc2c(cnc3c4ccc5cc(O)ccc5c4n(CCCN4CCOCC4)c23)cc1O	< 10 nM
66 nM	145 nM	209 nM	3090 nM	1440 nM	37 nM	3550 nM	62 nM		Active	COc1cc2c(cc1O)c[n+]([O-])c1c3ccc4cc(O)ccc4c3n(C)c21	50 nM
9.6 nM	1.3 nM	8.8 nM	1.8 nM	9.4 nM	< 1 nM	33 nM	2.5 nM			COc1cc2c(ccc3c4c(=O)oc5cc(O)c(OC)cc5c4n(C)c23)cc1O	2.6 nM
40 nM	38 nM	324 nM	15800 nM	9550 nM	331 nM	1950 nM	141 nM		inactive	COc1cc2c(cnc3c4ccc5cc(O)ccc5c4n(CCCn4ccnc4)c23)cc1O	44 nM
